Where “and” joins values, the source holds several entries; their conditions need not be identical. Identical values can stand only once.
How the values were obtained:
mononucleosomes = mononucleosomes (Homo sapiens, UniProt O60814+P04908); test: Peptide competition experiments; assay type: binding; conditions: SSX 34aa versus SMARCB1 aa351-385
[1] = tested on: acidic patch mutant nucleosomes (D90N, E92K, and E113K); test: GST-SSX pull down with acidic patch mutant nucleosomes; assay type: binding; conditions: H2A D90N, H3 immunoblot
Procedure: (§1) The flow through was removed, the immobilized bait was incubated with 1-2 μg of purified mammalian mono-nucleosomes from HEK293T cells, recombinant mono-nucleosomes (EpiCypher, 16-0006), recombinant H2AK119Ub mono-nucleosomes (EpiCypher, 16-0020) or recombinant protein for 3 hours at 4° C., and the beads were washed 3× with EB150 buffer and then eluted in 2×LDS with 200 mM DTT with heating at 95° C. for 5 minutes. The pull downs were then visualized by immunoblot analysis or colloidal blue staining.

[2] = tested on: WT, H2AUb or H2BUb nucleosomes; test: AlphaLisa binding assay with biotinylated nucleosomes; conditions: 10 nM biotinylated nucleosomes
[3] = tested on: mammalian mononucleosomes from HEK293T cells; test: Protein and peptide pull downs with mammalian mononucleosomes; assay type: binding, human; conditions: for nucleosome binding in pull-down: mammalian mononucleosomes
Procedure: as §1
Mammalian mononucleosomes were purified from HEK293T cells similar to as previously described (Mashtalir et al. (2014) Mol. Cell 54:392-406). Cells were scraped from plates, washed with cold PBS, and centrifuged at 5,000 rpm for 5 min at 4° C. Pellets were resuspended in hypotonic buffer (EBO: 50 mM Tris HCl, pH 7.5, 1 mM EDTA, 1 mM MgCl2, 0.1% NP40 supplemented with 1 mM DTT, 1 mM PMSF, and protease inhibitor cocktail (Roche, C756U27) and incubated for 5 min on ice. The suspension was centrifuged at 5,000 rpm for 5 min at 4° C., and pellets were resuspended in 5 volumes of EB420 (EBO: 50 mM Tris HCl, pH 7.5, 420 mM NaCl, 1 mM MgCl2, 0.1% NP40 with supplemented with 1 mM DTT and 1 mM PMSF containing protease inhibitor cocktail (Roche, C756U27). Homogenate incubated on rotator for 1 hour at 4° C. The supernatant was then centrifuged at 20,000 rpm (30,000×g) for 1 hour at 4° C. using a SW32Ti rotor. Supernatant was then discarded and chromatin pellet was washed in MNAse buffer (20 mM Tris-HCl pH 7.5, 100 mM KCl, 2 mM MgCl2, 1 mM CaCl2, […] sucrose, 0.1% NP-40, and protease inhibitor cocktail) three times. Following MNase treatment (3 U/mL for 30 min at room temperature, Sigma-Aldrich), the reaction was quenched with 5 mM of EGTA and 5 mM of EDTA. The samples were then centrifuged at 20,000×g for 1 hour at 4° C. to obtain the soluble chromatin fraction. Soluble chromatin fraction was loaded onto 10-30% glycerol gradient (Mashtalir et al. (2014) Mol. Cell 54:392-406) and fractions containing mononucleosomes were isolated and concentrated using centrifugal filter (Amicon, EMD Millipore).

[4] = tested on: recombinant H2AK119Ub mono-nucleosomes; test: Pull downs with WT or H2A K119Ub nucleosomes; assay type: binding
Procedure: as §1

nucleosome acidic patch = test: Detection of nucleosome acidic patch interactions by photocrosslinking; assay type: binding; conditions: diazirine probes in nucleosome acidic patch
Procedure: Briefly, diazirine-containing recombinant nucleosomes (0.5 uM) were incubated with biotinylated SSX peptides (12.5 uM) in binding buffer (20 mM HEPES, pH 7.9, 4 mM Tris, pH 7.5, 150 mM KCl, 10 mM MgCl2, 10% glycerol, and 0.02% (v/v) IGEPAL CA-630) at 30° C. for 30 mins, and cooled on ice for 5 mins. The reaction mixtures were then irradiated at 365 nm for 10 minutes. Reactions were then analyzed by western blotting employing IRDye® 800CW streptavidin on a LI-COR Odyssey® Infrared Imager. Additional details are found in Dao et al. (2019) Nat.

IMR90 fibroblasts = test: Peptide hybridization assay; assay type: cell-based; conditions: methanol-fixed IMR90 fibroblasts, co-stain H2A K119Ub
Procedure: IMR90 fibroblasts were grown on coverslips, washed with PBS and fixed using 100% ice-cold methanol for 3 minutes. Coverslips were then washed with IF wash buffer (PBS 0.1% NP40 1 mM Sodium azide) 3 times. Selected groups were treated with 200 ng/ml of recombinant USP2 catalytic domain (Boston biochem) for 1 hour. Coverslips were then washed 3 times with IF wash buffer and incubated with 2 μM of biotinylated peptides. Coverslips were subsequently washed 3 times with IF wash buffer and fixed in 3% PFA-PBS for 20 minutes. The rest of the procedure followed accordingly to standard IF protocol. In brief, following incubation with primary antibodies, the Anti-rabit Alexa Fluor® 594 and Streptavidin Alexa Fluor® 488 (Life Technologies) secondary antibodies/reagent were used for visualization of primary antibodies or biotinylated peptides. Staining with 4′,6-diamidino-2-phenylindole (DAPI) was used to visualize nuclei. Images were acquired using Zeiss Axio Imager Z2 microscope and images were processed using ImageJ program (NIH).

SYO-1 SS cells = test: Cell proliferation assay; assay type: cell-based, human; conditions: SYO-1, rescue with variant
Procedure: To measure cell proliferation following lentiviral infection, 2.5×10^4 cells per well were seeded in 12-well plates following 48-hour exposure to lentivirus and 5-day selection with puromycin or blasticidin, with Day 7 denoting the day cells were plated after infection and selection. The cell viability in three wells was then measured using a Vi-CELL™ Cell Counter (Beckman, Brea, CA) every 72 hours.

Barr bodies (inactive X) = test: Immunofluorescence, Barr body localization; assay type: cell-based, human; conditions: immunofluorescence
Procedure: Immunofluorescent images were obtained as previously described (Daou et al. (2011) Pro. Nat. Acad. Sci. U.S.A 108:2747-2752). Following lentiviral infection and/or drug treatment, cells were prepared by fixation in 3% PFA-PBS and then were permeabilized with PBS 0.1% NP40. Following incubation with primary antibodies, the Anti-rabbit Alexa Fluor® 594 and Anti-mouse Alexa Fluor® 488 (Life Technologies) secondary antibodies were used for visualization. Staining with 4′,6-diamidino-2-phenylindole (DAPI) was used to visualize nuclei. Images were acquired using Zeiss Axio Imager Z2 microscope and images were processed using ImageJ program (NIH).

[5] = target: T1, mammalian mononucleosomes from HEK-293T cells (Homo sapiens, UniProt P62805); test: Quantitative targeted mass spectrometry of histone marks on MBP-SSX1 78aa-bound nucleosomes (Tables 6A-6C); assay type: binding; conditions: SSX1 pulldown, parent peptide H4K20
T1 construct: endogenous in cells; host or cells: HEK293T (chromatin digested with MNase, glycerol gradient)
Procedure: (§2) Mammalian mono-nucleosomes purified from MBP-SSX1 78aa pull downs along with representative input samples were prepared and analyzed by the targeted mass spectrometry pipeline described previously (Creech et al. (2015) Methods 72:57-64). Briefly, samples were prepared by histone extraction by acid precipitation followed by protein digestion from incubation with trypsin. To these prepared samples, synthesized isotopically labeled peptides of histone tails with numerous modifications were added at a known quantity. Each sample was then separated using a Proxeon EASY-nLC™ 1000 UHPLC system (Thermo Scientific) and detected with a Q Exactive™ mass spectrometer (Thermo Scientific). The fold change in abundance of each histone peptide from the input sample compared to the pull down was calculated from the light:heavy ratio in detected peak size.

[6] = target: T2, mammalian mononucleosomes from HEK-293T cells (Homo sapiens, UniProt P0C0S5); test: as above; assay type: binding; conditions: SSX1 pulldown, HEK293T nucleosomes; parent peptide H2A.Z; normalized to histone norm peptide, log2
T2 construct: endogenous in cells; host or cells: HEK293T (chromatin digested with MNase, glycerol gradient)
T2 sequence (P0C0S5 whole entry): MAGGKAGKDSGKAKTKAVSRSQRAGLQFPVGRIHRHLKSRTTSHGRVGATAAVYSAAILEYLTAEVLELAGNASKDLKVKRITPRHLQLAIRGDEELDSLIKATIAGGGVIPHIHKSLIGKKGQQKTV
Procedure: as §2

[7] = tested on: mammalian mononucleosomes from HEK-293T cells; test: as above; assay type: binding, human; conditions: SSX1 pulldown
Procedure: as §2

[8] = HEK293T nucleosomes, normalized to histone norm peptide, log2
[9] = HEK293T nucleosomes, parent peptide H2AK5K9, normalized to histone norm peptide, log2
[10] = HEK293T nucleosomes, parent peptide H2AK13K15, normalized to histone norm peptide, log2
[11] = HEK293T nucleosomes, parent peptide H2B, normalized to histone norm peptide, log2
[12] = HEK293T nucleosomes, parent peptide H3K4, normalized to histone norm peptide, log2
[13] = HEK293T nucleosomes, parent peptide H3K9K14, normalized to histone norm peptide, log2
[14] = HEK293T, parent peptide H2AK5K9
[15] = HEK293T, parent peptide H3K9K14

With “SMARCB1 C-term alpha helix: peptide of the SMARCB1 C-terminal alpha helical domain, aa 351-385” the “reciprocal competition for nucleosome acidic patch binding” value (mononucleosomes) was “unable to outcompete SSX from binding the nucleosomes”.
“GST-SSX 78aa: GST-tagged recombinant C-terminal 78 residues of SSX1 (aa 111-188)” was tested, and the “binding to acidic patch-mutant nucleosomes” value [1] was “near complete loss of SSX binding”, the “affinity to H2A K119Ub-decorated nucleosomes, AlphaLisa” value [2] was “significantly higher affinity to H2A K119Ub-decorated nucleosomes relative to unmodified nucleosomes or H2B K120Ub nucleosomes” and the “nucleosome binding in pull-down” value [3] was “sufficient for its nucleosomal interactions”. For the same substance, the “binding to mammalian versus recombinant, unmodified nucleosomes” value ([3]; pull-down) was “stronger than binding to recombinant, unmodified nucleosomes”, the “affinity to H2A K119Ub-decorated nucleosomes, pulldown” value ([4]; H3 immunoblot) was “significantly higher affinity to H2A K119Ub-decorated nucleosomes relative to unmodified nucleosomes or H2B K120Ub nucleosomes” and the “binding across differentially-marked recombinant and mammalian nucleosomes” value ([4]; screen of modified mononucleosomes) was “preferentially bound to H2A K119Ub and mammalian nucleosomes over unmodified nucleosomes or nucleosomes with other histone marks”.
For “SSX aa155-188: N-terminally biotinylated peptide of the conserved 34aa region of SSX”, the “histone-SSX crosslinks across the acidic patch” value (nucleosome acidic patch) was “most prominently at positions H2A E56 and H2B E113”, the “labeling of Barr bodies by biotinylated peptide” value (IMR90 fibroblasts) was “Clear labeling of Barr bodies” and the “nucleosome binding in pull-down” value [3] was “sufficient for SSX nucleosome binding”.
“SS18-SSX: SS18 aa 1-379 fused to the C-terminal 78 aa of SSX1 (SEQ ID NO: 225)” was tested, and the “proliferation of SS cells with shSSX knockdown of endogenous SS18-SSX” value (SYO-1 SS cells) was “rescued proliferation” and the “localization / recruitment to Barr bodies” value (Barr bodies (inactive X)) was “strong colocalization”.
In the case of SSX1, the “log2norm (Light/Heavy) intensity ratio of H4(20to23)K20me0” value [5, 8] is reported as 0.017 and 0.092, the “log2norm (Light/Heavy) intensity ratio of H4(20to23)K20me1” value [5, 8] is reported as −0.427 and −0.443 and the “log2norm (Light/Heavy) intensity ratio of H4(20to23)K20me2” value [5, 8] is reported as −0.414 and −0.391. The “log2norm (Light/Heavy) intensity ratio of H4(20to23)K20me3” value [5, 8] was −0.109 and 0.055, the “H4(20to23)K20me1 norm to ctrl avg” value ([5]; HEK293T) was 0.211 and 0.195 and the “H4(20to23)K20me2 norm to ctrl avg” value ([5]; HEK293T) was 0.024 and 0.047. The “log2norm (Light/Heavy) intensity ratio of H2AZ(1to19)K4ac1” value [6] was −0.217 and 0.048, the “log2norm (Light/Heavy) intensity ratio of H2AZ(1to19)ac0” value [6] was −0.784 and −0.697 and the “log2norm (Light/Heavy) intensity ratio of H2A(4to11)K5ac1” value [7, 9] was 0.569 and 0.624. The “log2norm (Light/Heavy) intensity ratio of H2A(4to11)K5ac1K9ac1” value [7, 9] was −0.031 and −0.049, the “log2norm (Light/Heavy) intensity ratio of H2A(4to11)K9ac1” value [7, 9] was −0.254 and −0.375 and the “log2norm (Light/Heavy) intensity ratio of H2A(4to11)ac0” value [7, 9] was −0.026 and 0.061. The “log2norm (Light/Heavy) intensity ratio of H2A(12to17)K13ac1” value [7, 10] was 0.032 and −0.047, the “log2norm (Light/Heavy) intensity ratio of H2A(12to17)K15ac1” value [7, 10] was 0.042 and −0.086 and the “log2norm (Light/Heavy) intensity ratio of H2B(1to29)K5ac1” value [7, 11] was 0.273 and 0.323. The “log2norm (Light/Heavy) intensity ratio of H2B(1to29)ac0” value [7, 11] was 0.152 and 0.160, the “log2norm (Light/Heavy) intensity ratio of H3K4ac1” value [7, 12] was 0.263 and 0.320 and the “log2norm (Light/Heavy) intensity ratio of H3K4me0” value [7, 12] was 0.549 and 0.339. The “log2norm (Light/Heavy) intensity ratio of H3K4me2” value [7, 12] was 0.778 and 0.532, the “log2norm (Light/Heavy) intensity ratio of H3K4me3” value [7, 12] was 0.766 and 0.505 and the “log2norm (Light/Heavy) intensity ratio of H3K9me1S10ph1K14ac1” value [7, 13] was −2.668 and −2.507. The “log2norm (Light/Heavy) intensity ratio of H3K9me2S10ph1K14ac1” value [7, 13] was −0.870 and −1.009, the “log2norm (Light/Heavy) intensity ratio of H3K79me2” value ([7]; HEK293T nucleosomes, parent peptide H3K79, normalized to histone norm peptide, log2) was 0.826 and 0.557 and the “H2A(4to11)K5ac1K9ac1 norm to ctrl avg” value [7, 14] was 0.050 and 0.032. The “H2A(4to11)K9ac1 norm to ctrl avg” value [7, 14] was 0.404 and 0.283, the “H2A(12to17)K13ac1 norm to ctrl avg” value ([7]; HEK293T, parent peptide H2AK13K15) was 0.266 and 0.188 and the “H2B(1to29)K5ac1 norm to ctrl avg” value ([7]; HEK293T, parent peptide H2B) was 0.154 and 0.203. The “H2B(1to29)ac0 norm to ctrl avg” value ([7]; HEK293T, parent peptide H2B) was 0.191 and 0.199, the “H3K4me0 norm to ctrl avg” value ([7]; HEK293T, parent peptide H3K4) was 0.514 and 0.304 and the “H3K9me1S10ph1K14ac1 norm to ctrl avg” value [7, 15] was 0.290 and 0.451. The “H3K9me2S10ph1K14ac0 norm to ctrl avg” value [7, 15] was 1.301 and 0.892 and the “H3K9me2S10ph1K14ac1 norm to ctrl avg” value [7, 15] was 1.152 and 1.012.

Source: patent US20250283871A1, “COMPOSITIONS AND METHODS FOR MODULATING THE INTERACTION BETWEEN SS18-SSX FUSION ONCOPROTEIN AND NUCLEOSOMES” (Dana-Farber Cancer Institute, Inc., priority 2020, published 2025)
